Results on five compounds are retold here after patent US12678446B2 (PFIZER INC., priority 2020, dated 2026).

Broadly, the CC50 is the concentration at which the toxic effect on the cells reaches its halfway point. By Cmax is commonly meant the maximum level reached in the sampled fluid or tissue. The term EC50 denotes the concentration needed to bring the measured effect to its halfway point.

One data set relates to RSV. Conditions: Antimicrobial Agents and Chemotherapy, September 2007, 3346-3353; cited from earlier work.
Data set [1] is described as follows: Hepatocyte stability, dog. Type of data set: in vitro ADME. The following applies: dog hepatocytes 0.5×10^6 viable cells/mL, 3 μM compound, up to 60 min; for half-life at 3 μM: cryopreserved pooled hepatocytes, read-out: Liver Hepatocyte Stability t½. How it is done:
(§1) Compounds were subjected to the following assays to investigate liver microsomal stability and hepatocyte stability.
(§2) Hepatocyte Incubation: Experimental Procedure
(§3) Cryopreserved pooled hepatocytes were purchased from a reputable commercial supplier and stored in liquid nitrogen prior to use. Williams E media supplemented with 2 mM L-glutamine and 25 mM HEPES and test compound (final substrate concentration 3 μM; final DMSO concentration 0.25%) are pre-incubated at 37° C. prior to the addition of a suspension of cryopreserved hepatocytes (final cell density 0.5×10^6 viable cells/mL in Williams E media supplemented with 2 mM L-glutamine and 25 mM HEPES) to initiate the reaction. The final incubation volume is 500 μL. Two control compounds were included with each species, alongside appropriate vehicle control. The reactions are stopped by transferring 50 μL of incubate to 100 μL acetonitrile containing internal standard at the appropriate time points. Samples were removed at 6 time points (0, 5, 15, 30, 45 and 60 min) over the course of a 60 min experiment. The termination plates are centrifuged at 2500 rpm at 4° C. for 30 min to precipitate the protein. Following protein precipitation, the sample supernatants were combined in cassettes of up to 4 compounds and analysed using generic LC-MS/MS conditions. From a plot of ln peak area ratio (compound peak area/internal standard peak area) against time, the gradient of the line is determined. Subsequently, half-life (t½) and intrinsic clearance (CLint) were calculated.

A short description of data set [2]: Liver microsomal stability, rat. Conditions: rat liver microsomes 0.5 mg/mL, 1 μM compound, NADPH, up to 45 min; for half-life at 1 μM: pooled liver microsomes, pH 7.4, read-out: Liver Microsomal Stability t½. The class given is in vitro ADME. How it is done: as §1
(§4) Pooled liver microsomes were purchased from a reputable commercial supplier and stored at −80° C. prior to use. Microsomes (final protein concentration 0.5 mg/mL), 0.1 M phosphate buffer pH 7.4 and test compound (final substrate concentration 1 μM; final DMSO concentration 0.25%) were pre-incubated at 37° C. prior to the addition of NADPH (final concentration 1 mM) to initiate the reaction. The final incubation volume was 50 μL. A control incubation was included for each compound tested where 0.1 M phosphate buffer pH 7.4 was added instead of NADPH (minus NADPH). Two control compounds were included with each species. All incubations were performed singularly for each test compound. Each compound was incubated for 0, 5, 15, 30 and 45 min. The control (minus NADPH) was incubated for 45 min only. The reactions were stopped by transferring incubate into acetonitrile at the appropriate time points, in a 1:3 ratio. The termination plates are centrifuged at 3,000 rpm for 20 min at 4° C. to precipitate the protein. Following protein precipitation, the sample supernatants were combined in cassettes of up to 4 compounds, internal standard added, and samples analysed by LC-MS/MS. From a plot of ln peak area ratio (compound peak area/internal standard peak area) against time, the gradient of the line was determined. Subsequently, half-life (t1/2) and intrinsic clearance (CLint) were calculated.
(In general: Microsomes from liver hold many membrane-bound enzymes, among them those of drug oxidation.)

The nature of a further data set: cell toxicity CC50. Conditions: human; Hep-G2 cells; mean of at least two experiments; read-out: Cell Cytotoxicity CC50. Type of data set: cell-based.
Data set [3] can be described thus: Liver microsomal stability, human. Type of data set: in vitro ADME. The following applies: human liver microsomes 0.5 mg/mL, 1 μM compound, NADPH, up to 45 min; for half-life at 1 μM: pooled liver microsomes, pH 7.4, read-out: Liver Microsomal Stability t½. How it is done:
as §1, §4

The nature of data set [4]: Liver microsomal stability, dog. Type of data set: in vitro ADME. Conditions: dog liver microsomes 0.5 mg/mL, 1 μM compound, NADPH, up to 45 min; for half-life at 1 μM: pooled liver microsomes, pH 7.4, read-out: Liver Microsomal Stability t½. On the procedure: as §1, §4
A short description of data set [5]: Rat pharmacokinetics in vivo (IV 1 mg/kg, PO 10 mg/kg). Also noted: species or system Male rats [Sprague Dawley (SD)]. The following applies: male SD rat; for AUC(0-t): read-out: PO AUClast; for Cmax: PO 10 mg/kg study; for concentration at 8 h: read-out: C 8 h; for F: PO 10 mg/kg vs IV 1 mg/kg. How it is done: The pharmacokinetics of compounds were studied in vivo in rats at doses of 1 mg/kg (IV) and 10 mg/kg (PO).
Male rats [Sprague Dawley (SD)] surgically prepared with a jugular vein cannula were treated with experimental compounds via intravenous administration (IV; n=3; 1 mg/kg) or oral administration (PO; n=3; 10 mg/kg). Compounds were formulated as a solution in 40:60 dimethylacetamide:saline (IV administration) and a solution of 10% DMSO, 10% cremaphor in water (80%) (PO administration). […] Serial blood samples were collected via the cannula at 0.02, 0.08, 0.25, 0.5, 1, 2, 4, 6, 8 and 24 h post IV dosing of compound, and at 0.08, 0.25, 0.5, 1, 2, 4, 6, 8 and 24 h post oral dosing of compound, and plasma was prepared by centrifugation and stored immediately at −80° C. Samples were subsequently thawed, prepared for analysis by protein precipitation with acetonitrile, and analysed by tandem LCMS using electrospray ionisation using a matrix-matched calibration curve. PK parameters were calculated from the resulting data.

A short description of data set [6]: Hepatocyte stability, rat. Type of data set: in vitro ADME. Conditions: rat hepatocytes 0.5×10^6 viable cells/mL, 3 μM compound, up to 60 min; for half-life at 3 μM: cryopreserved pooled hepatocytes, read-out: Liver Hepatocyte Stability t½. On the procedure:
as §1, §2, §3

Data set [7] is described as follows: Hepatocyte stability, human. The class given is in vitro ADME. The following applies: human hepatocytes 0.5×10^6 viable cells/mL, 3 μM compound, up to 60 min; for half-life at 3 μM: cryopreserved pooled hepatocytes, read-out: Liver Hepatocyte Stability t½. On the procedure:
as §1, §2, §3

Data set [8] relates to RSV (RSV A2 ECACC, 0709161v). As to the kind of experiment: RSV plaque reduction assay. Type of data set: cell-based, respiratory syncytial virus. Conditions: mean of at least two experiments unless noted (n = 1). The method in brief:
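Eight-point compound dilutions were premixed with RSV A2 (100 PFU/well) and applied to confluent Hep-G2 cells for 2 h, followed by a 2-day incubation at 37° C. under compound-containing 0.8% CMC overlay. EC50 comes from immunostained plaque counts relative to untreated virus wells, averaged over ≥2 runs.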
Background: In a plaque reduction assay, fewer plaques than in the control indicate reduced infectivity or spread.

In the next data set the test system is Hep-G2 cells. Kind of data set: cell toxicity CC50. Type of data set: cell-based. Conditions: mean of at least two experiments, read-out: Cell Cytotoxicity CC50.
The mark [9] stands for this setting: Sprague Dawley, plasma, IV 1 mg/kg.
Setting [10] is: Sprague Dawley, plasma, IV 1 mg/kg, read-out: IV t½ (converted).
Where [11] appears, read: Sprague Dawley, plasma, IV 1 mg/kg, read-out: Vd.
Where [12] appears, read: Sprague Dawley, plasma, PO 10 mg/kg.
[13] abbreviates: Sprague Dawley, plasma, PO 10 mg/kg, read-out: PO t½ (converted).
Where [14] appears, read: Sprague Dawley, plasma, IV 1 mg/kg, read-out: Cmax.
The mark [15] stands for this setting: human respiratory syncytial virus, HepG2, read-out: RSV A2 Plaque EC50, RSV A2 in Hep-G2 cells.

Where two headings read alike, the source gives them in different places.

`O=C(Nc1ccccc1F)N[C@H]1N=C(c2ccccc2)c2ccccc2NC1=O` [RSV604]: in the data set with RSV, the anti-RSV activity entry is listed as “sub-micromolar anti-RSV activity”.
As to `C[C@@H]1CCn2nc(-c3ccccc3F)c(C(=O)N[C@H]3N=C(c4ccccc4)c4cccc(F)c4NC3=O)c2O1` [Example 25, (5R)-N-[(3S)-9-fluoro-2-oxo-5-phenyl-1,3-dihydro-1,4-benzodiazepin-3-yl]-2-(2-fluorophenyl)-5-methyl-6,7-dihydro-5H-pyrazolo[5,1-b][1,3]oxazine-3-carboxamide], the half-life at 3 μM in data set [1] was greater than 3.1 h; in data set [6], 1.8 h; in data set [7], 4.73 h. Further, the half-life at 1 μM in data set [2] was greater than 2.33 h; in data set [3], 16.8 h; in data set [4], greater than 2.33 h. Besides, in “cell toxicity CC50”, the CC50 was greater than 25000 nM. In data set [5] (setting [9]), this compound came in with a clearance of 4.7 mL/min/kg. For the same compound, the figures for the half-life in data set [5] (setting [10]) and in data set [5] (setting [13]) were 2.2 h and 3.4 h, respectively. Further, the Vd in data set [5] (setting [11]) came to 0.6 L/kg. Further, the AUC(0-t) in [5] (setting [12]) is 14900 ng·h/mL. Further, the Cmax in data set [5] (setting [14]) amounted to 1880 ng/mL. In addition, the concentration at 8 h in [5] (Sprague Dawley, plasma at 8 h) was determined as 812 ng/mL. The same compound yielded a F in [5] of 40.3%. Besides, in [8] (setting [15]), the EC50 amounted to 24 nM.
In the case of “(5R)-2-(3-Fluoropyridin-4-yl)-5-methyl-N-[(3S)-9-fluoro-2-oxo-5-phenyl-1,3-dihydro-1,4-benzodiazepin-3-yl]-6,7-dihydro-5H-pyrazolo[5,1-b][1,3]oxazine-3-carboxamide [Example 51]”, the “Liver Hepatocyte Stability t½” value in data set [1] was determined as 16.4 h. For the same compound, the “Liver Microsomal Stability t½” value in [2] came to 1.1 h. In addition, the cytotoxic concentration (CC50) with Hep-G2 cells is greater than 25000 nM. The “Liver Microsomal Stability t½” value in [3] worked out at 1.04 h. Besides, the “Liver Microsomal Stability t½” value in [4] is greater than 2.33 h. Further, in data set [5] (IV 1 mg/kg), the Cl is listed as 46.4 mL/min/kg, the “IV t½” value worked out at 0.48 h, the Vd was 1.0 L/kg and the Cmax turned out to be 730 ng/mL. In addition, in data set [5] (PO 10 mg/kg), the “PO AUClast” value turned out to be 1582 ng·h/mL and the “PO t½” value is recorded as 1.1 h. This compound yielded a F in [5] of 44.3%. Also, the “C 8 h” value in data set [5] (plasma at 8 h) was determined as 7.6 ng/mL. In addition, the “Liver Hepatocyte Stability t½” value in data set [6] is 1.88 h. Also, in data set [7], the “Liver Hepatocyte Stability t½” value was 1.47 h. Besides, in [8] (RSV A2 in Hep-G2 cells, read-out: RSV A2 Plaque EC50), the EC50 was 80 nM.
For the compound `C[C@H]1CCn2nc(-c3ccccc3F)c(C(=O)N[C@H]3N=C(c4ccccc4)c4cccc(F)c4NC3=O)c2O1` [Example 27, (5S)-N-[(3S)-9-fluoro-2-oxo-5-phenyl-1,3-dihydro-1,4-benzodiazepin-3-yl]-2-(2-fluorophenyl)-5-methyl-6,7-dihydro-5H-pyrazolo[5,1-b][1,3]oxazine-3-carboxamide], the half-life at 3 μM was greater than 3.1 h in data set [1], 8.08 h in data set [6] and greater than 3.1 h in data set [7]. Also, the half-life at 1 μM in data set [2] stood at 1.4 h; in [3], 2.25 h; in data set [4], 7.72 h. For the same compound, the CC50 in the data set “cell toxicity CC50” is greater than 25000 nM. Moreover, the clearance in data set [5] (setting [9]) worked out at 24.9 mL/min/kg. The half-life is 0.72 h in [5] (setting [10]) and 2.8 h in data set [5] (setting [13]). For the same compound, in data set [5] (setting [11]), the Vd worked out at 0.9 L/kg. In addition, in [5] (setting [12]), the AUC(0-t) worked out at 3140 ng·h/mL. For the same compound, the peak concentration (Cmax) in data set [5] (setting [14]) is 960 ng/mL. Moreover, the concentration at 8 h in data set [5] (Sprague Dawley, plasma at 8 h) turned out to be 75.9 ng/mL. In addition, the F in [5] amounted to 49.6%. In [8] (setting [15]), the EC50 was determined as 20 nM.
Take `CCc1ccc(-c2nn3c(c2C(=O)N[C@H]2N=C(c4ccccc4)c4cccc(F)c4NC2=O)OCCC3)cn1` [Example 106, 2-(6-Ethylpyridin-3-yl)-N-[(3S)-9-fluoro-2-oxo-5-phenyl-1,3-dihydro-1,4-benzodiazepin-3-yl]-6,7-dihydro-5H-pyrazolo[5,1-b][1,3]oxazine-3-carboxamide]: the half-life at 3 μM is 2 h in data set [1], 1.59 h in data set [6] and greater than 3.1 h in [7]. In addition, the half-life at 1 μM in data set [2] is 0.815 h; in [3], 3.1 h; in data set [4], 1.82 h. In addition, the 50% cytotoxic concentration (CC50) in the data set “cell toxicity CC50” is greater than 25000 nM. The compound also displayed a clearance in data set [5] (setting [9]) of 14.6 mL/min/kg. For the same compound, the values for the half-life in [5] (setting [10]) and in data set [5] (setting [13]) were 1.2 h and 3.6 h, respectively. Also, the Vd in data set [5] (setting [11]) was 0.7 L/kg. Further, in data set [5] (setting [12]), the AUC(0-t) worked out at 5690 ng·h/mL. For the same compound, the peak concentration (Cmax) in [5] (setting [14]) was 1030 ng/mL. Also, the concentration at 8 h in data set [5] (Sprague Dawley, plasma at 8 h) is 271 ng/mL. For the same compound, the F in data set [5] is 59.4%. Besides, the EC50 in [8] (setting [15]) turned out to be 48 nM.
